According to ChEMBL document CHEMBL1134183, “First tricyclic oximino derivatives as 5-HT3 ligands” (Bioorg Med Chem Lett, 2001):

Tests used:
[1] = target: Serotonin 3 (5-HT3) receptor; experiment: Binding affinity towards 5-hydroxytryptamine 3 receptor; type: protein-complex assay
[2] = Compound was tested for binding affinity against 5-HT1 receptor
[3] = target: T1, Serotonin 3 (5-HT3) receptor (Homo sapiens) (UniProt P46098+A5X5Y0+O95264+Q70Z44+Q8WXA8); experiment: Percent of control response to 5-HT3 agonistic activity on guinea colon at a concentration 0.1 uM; type: functional, tissue-based; conditions: Cavia porcellus, target entry is the homologue from another species
[4] = target: T1, Serotonin 3 (5-HT3) receptor (Homo sapiens); experiment: Percent of control response to 5-HT3 agonistic activity on guinea colon at a concentration 0.01 uM; type: functional, tissue-based; conditions: Cavia porcellus, target entry is the homologue from another species
[5] = target: T2, 5-hydroxytryptamine receptor 1A (Homo sapiens, UniProt P08908); experiment: Compound was tested for binding affinity against 5-hydroxytryptamine 1A receptor
T2 sequence (P08908 whole entry): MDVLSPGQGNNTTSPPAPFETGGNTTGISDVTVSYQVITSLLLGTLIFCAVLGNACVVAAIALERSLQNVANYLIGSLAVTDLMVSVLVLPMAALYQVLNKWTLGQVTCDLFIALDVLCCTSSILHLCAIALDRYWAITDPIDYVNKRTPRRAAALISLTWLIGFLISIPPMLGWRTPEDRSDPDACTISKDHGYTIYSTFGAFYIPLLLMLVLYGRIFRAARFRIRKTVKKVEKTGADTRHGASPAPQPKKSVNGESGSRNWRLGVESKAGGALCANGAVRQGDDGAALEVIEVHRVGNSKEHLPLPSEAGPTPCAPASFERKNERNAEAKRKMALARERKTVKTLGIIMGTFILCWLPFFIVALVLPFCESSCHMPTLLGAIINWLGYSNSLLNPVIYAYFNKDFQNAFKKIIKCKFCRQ

[6] = target: T1, Serotonin 3 (5-HT3) receptor (Homo sapiens); experiment: Compound was tested for agonistic activity against 5-hydroxytryptamine 3 receptor on guinea colon at a concentration 0.01 uM; type: functional, tissue-based; conditions: Cavia porcellus, target entry is the homologue from another species
[7] = target: 5-hydroxytryptamine receptor 7 (Homo sapiens) (UniProt P34969); experiment: Percentage of displacement at 5-hydroxytryptamine 7 receptor at 10e-8 M
5-hydroxytryptamine receptor 7 (Homo sapiens), sequence (P34969 whole entry): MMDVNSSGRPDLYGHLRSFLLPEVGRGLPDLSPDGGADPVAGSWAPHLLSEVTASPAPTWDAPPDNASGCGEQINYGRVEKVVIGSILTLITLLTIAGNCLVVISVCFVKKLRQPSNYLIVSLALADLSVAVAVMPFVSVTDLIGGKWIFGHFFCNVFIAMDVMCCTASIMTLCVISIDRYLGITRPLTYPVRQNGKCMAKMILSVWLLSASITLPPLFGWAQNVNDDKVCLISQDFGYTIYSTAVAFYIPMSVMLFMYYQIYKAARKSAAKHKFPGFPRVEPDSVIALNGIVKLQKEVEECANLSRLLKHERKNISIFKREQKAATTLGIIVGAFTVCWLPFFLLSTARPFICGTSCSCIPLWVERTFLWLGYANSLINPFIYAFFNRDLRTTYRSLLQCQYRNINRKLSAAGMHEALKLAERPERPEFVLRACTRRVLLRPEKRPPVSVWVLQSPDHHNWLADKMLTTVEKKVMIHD

[8] = target: 5-hydroxytryptamine receptor 1D (Homo sapiens, UniProt P28221); experiment: Compound was tested for binding affinity against 5-hydroxytryptamine 1D receptor
5-hydroxytryptamine receptor 1D, sequence (P28221 whole entry): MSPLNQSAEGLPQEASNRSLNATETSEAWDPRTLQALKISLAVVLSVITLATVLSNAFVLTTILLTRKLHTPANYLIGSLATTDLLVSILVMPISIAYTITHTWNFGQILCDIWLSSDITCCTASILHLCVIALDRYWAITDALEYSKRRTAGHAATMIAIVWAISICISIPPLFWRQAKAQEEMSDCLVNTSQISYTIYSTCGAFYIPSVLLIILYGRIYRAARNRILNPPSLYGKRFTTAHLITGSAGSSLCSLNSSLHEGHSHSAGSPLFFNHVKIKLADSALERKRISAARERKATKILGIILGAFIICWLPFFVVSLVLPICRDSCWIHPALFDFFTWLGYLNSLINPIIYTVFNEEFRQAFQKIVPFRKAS

[9] = target: Serotonin 2 (5-HT2) receptor (Homo sapiens, UniProt P41595+P28223+P28335); experiment: Compound was tested for binding affinity against 5-hydroxytryptamine 2 receptor; type: protein assay
[10] = target: T1, Serotonin 3 (5-HT3) receptor (Homo sapiens); experiment: Percent of control response to 5-HT3 antagonistic activity on guinea colon at a concentration 0.01 uM; type: functional, tissue-based; conditions: Cavia porcellus, target entry is the homologue from another species
[11] = target: T1, Serotonin 3 (5-HT3) receptor (Homo sapiens); experiment: Percent of control response to 5-HT3 agonistic activity on guinea colon at a concentration 1 uM; type: functional, tissue-based; conditions: Cavia porcellus, target entry is the homologue from another species
[12] = target: T3, 5-hydroxytryptamine receptor 2C (Homo sapiens, UniProt P28335); experiment: Compound was tested for binding affinity against 5-hydroxytryptamine 2C receptor
T3 sequence (P28335 whole entry): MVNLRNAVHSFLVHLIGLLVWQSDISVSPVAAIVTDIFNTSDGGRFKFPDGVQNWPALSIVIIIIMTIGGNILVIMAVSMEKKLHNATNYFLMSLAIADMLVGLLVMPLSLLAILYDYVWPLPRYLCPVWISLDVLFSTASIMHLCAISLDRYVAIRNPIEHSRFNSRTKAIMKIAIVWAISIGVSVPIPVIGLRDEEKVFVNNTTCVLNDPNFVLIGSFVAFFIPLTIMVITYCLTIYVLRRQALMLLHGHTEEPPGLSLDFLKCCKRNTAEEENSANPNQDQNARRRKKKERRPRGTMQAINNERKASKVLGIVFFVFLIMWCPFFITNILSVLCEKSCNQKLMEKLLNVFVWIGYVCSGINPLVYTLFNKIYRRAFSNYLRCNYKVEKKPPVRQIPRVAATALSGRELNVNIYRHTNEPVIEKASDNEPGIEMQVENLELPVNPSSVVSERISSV

[13] = target: 5-hydroxytryptamine receptor 4 (Homo sapiens, UniProt Q13639); experiment: Compound was tested for agonistic activity against 5-hydroxytryptamine 4 receptor on guinea colon at a concentration 0.1 uM; type: functional, tissue-based
5-hydroxytryptamine receptor 4, sequence (Q13639 whole entry): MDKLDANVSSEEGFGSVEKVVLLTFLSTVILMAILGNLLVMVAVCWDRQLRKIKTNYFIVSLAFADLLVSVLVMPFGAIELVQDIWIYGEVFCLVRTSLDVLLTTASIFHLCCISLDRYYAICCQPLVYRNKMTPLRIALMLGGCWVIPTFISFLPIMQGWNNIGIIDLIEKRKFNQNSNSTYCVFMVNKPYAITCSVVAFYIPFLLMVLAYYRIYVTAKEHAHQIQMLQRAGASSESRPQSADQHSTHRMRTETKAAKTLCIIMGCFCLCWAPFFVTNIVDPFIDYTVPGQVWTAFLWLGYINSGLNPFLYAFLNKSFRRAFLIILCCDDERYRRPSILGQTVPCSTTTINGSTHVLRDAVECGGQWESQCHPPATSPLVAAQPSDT

[14] = target: T1, Serotonin 3 (5-HT3) receptor (Homo sapiens); experiment: Percent of control response to 5-HT3 antagonistic activity on guinea colon at a concentration 1 uM; type: functional, tissue-based; conditions: Cavia porcellus, target entry is the homologue from another species
[15] = target: 5-hydroxytryptamine receptor 6 (Homo sapiens) (UniProt P50406); experiment: Percentage of displacement at 5-hydroxytryptamine 6 receptor at 10e-8 M
5-hydroxytryptamine receptor 6 (Homo sapiens), sequence (P50406 whole entry): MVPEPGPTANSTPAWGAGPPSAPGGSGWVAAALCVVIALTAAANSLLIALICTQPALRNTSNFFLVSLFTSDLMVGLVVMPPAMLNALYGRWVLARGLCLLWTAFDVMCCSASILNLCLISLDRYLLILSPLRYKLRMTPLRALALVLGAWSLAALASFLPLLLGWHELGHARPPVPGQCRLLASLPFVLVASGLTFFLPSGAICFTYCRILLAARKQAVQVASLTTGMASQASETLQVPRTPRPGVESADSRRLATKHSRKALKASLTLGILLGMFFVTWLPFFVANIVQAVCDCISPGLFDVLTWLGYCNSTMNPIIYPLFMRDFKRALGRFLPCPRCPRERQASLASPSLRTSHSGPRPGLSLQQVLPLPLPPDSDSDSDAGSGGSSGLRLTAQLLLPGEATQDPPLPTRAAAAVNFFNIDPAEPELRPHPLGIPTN

[16] = target: Serotonin 3 (5-HT3) receptor; experiment: Compound was tested for agonistic activity against 5-HT uptake; type: functional
[17] = target: Serotonin 3 (5-HT3) receptor; experiment: Compound was tested for binding affinity towards 5-hydroxytryptamine 3 receptor; type: protein-complex assay
[18] = target: 5-hydroxytryptamine receptor 1B (Homo sapiens, UniProt P28222); experiment: Compound was tested for binding affinity against 5-hydroxytryptamine 1B receptor
5-hydroxytryptamine receptor 1B, sequence (P28222 whole entry): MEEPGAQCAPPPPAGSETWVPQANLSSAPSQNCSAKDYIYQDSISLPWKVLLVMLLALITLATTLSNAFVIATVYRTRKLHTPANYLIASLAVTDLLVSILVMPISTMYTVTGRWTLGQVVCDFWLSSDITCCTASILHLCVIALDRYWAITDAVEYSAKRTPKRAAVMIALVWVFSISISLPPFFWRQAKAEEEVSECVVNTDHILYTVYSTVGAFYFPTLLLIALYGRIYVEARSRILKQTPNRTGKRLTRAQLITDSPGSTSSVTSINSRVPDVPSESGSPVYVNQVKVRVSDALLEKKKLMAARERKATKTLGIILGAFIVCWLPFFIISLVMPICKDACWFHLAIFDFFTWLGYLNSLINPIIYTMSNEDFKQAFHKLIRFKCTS

[19] = target: Sodium-dependent dopamine transporter (Homo sapiens) (UniProt Q01959); experiment: Compound was tested for binding affinity against dopaminergic uptake
Sodium-dependent dopamine transporter (Homo sapiens), sequence (Q01959 whole entry): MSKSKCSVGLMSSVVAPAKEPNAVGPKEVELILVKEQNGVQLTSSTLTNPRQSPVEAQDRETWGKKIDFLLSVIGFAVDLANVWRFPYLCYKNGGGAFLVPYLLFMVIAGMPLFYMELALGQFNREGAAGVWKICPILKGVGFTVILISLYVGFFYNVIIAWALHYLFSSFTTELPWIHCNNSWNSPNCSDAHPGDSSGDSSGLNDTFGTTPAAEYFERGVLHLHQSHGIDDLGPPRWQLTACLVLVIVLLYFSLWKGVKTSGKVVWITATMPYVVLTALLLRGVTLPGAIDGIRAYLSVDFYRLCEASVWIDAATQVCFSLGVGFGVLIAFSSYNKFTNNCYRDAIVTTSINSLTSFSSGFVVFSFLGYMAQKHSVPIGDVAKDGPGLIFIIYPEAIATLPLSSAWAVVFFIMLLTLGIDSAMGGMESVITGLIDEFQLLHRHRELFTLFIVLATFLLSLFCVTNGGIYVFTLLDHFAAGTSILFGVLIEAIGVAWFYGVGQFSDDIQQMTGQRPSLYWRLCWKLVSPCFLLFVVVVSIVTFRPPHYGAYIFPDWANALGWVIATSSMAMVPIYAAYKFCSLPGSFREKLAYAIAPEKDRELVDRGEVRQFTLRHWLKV

[20] = target: Sodium-dependent noradrenaline transporter (Homo sapiens) (UniProt P23975); experiment: Compound was tested for binding affinity against noradrenergic uptake
Sodium-dependent noradrenaline transporter (Homo sapiens), sequence (P23975 whole entry): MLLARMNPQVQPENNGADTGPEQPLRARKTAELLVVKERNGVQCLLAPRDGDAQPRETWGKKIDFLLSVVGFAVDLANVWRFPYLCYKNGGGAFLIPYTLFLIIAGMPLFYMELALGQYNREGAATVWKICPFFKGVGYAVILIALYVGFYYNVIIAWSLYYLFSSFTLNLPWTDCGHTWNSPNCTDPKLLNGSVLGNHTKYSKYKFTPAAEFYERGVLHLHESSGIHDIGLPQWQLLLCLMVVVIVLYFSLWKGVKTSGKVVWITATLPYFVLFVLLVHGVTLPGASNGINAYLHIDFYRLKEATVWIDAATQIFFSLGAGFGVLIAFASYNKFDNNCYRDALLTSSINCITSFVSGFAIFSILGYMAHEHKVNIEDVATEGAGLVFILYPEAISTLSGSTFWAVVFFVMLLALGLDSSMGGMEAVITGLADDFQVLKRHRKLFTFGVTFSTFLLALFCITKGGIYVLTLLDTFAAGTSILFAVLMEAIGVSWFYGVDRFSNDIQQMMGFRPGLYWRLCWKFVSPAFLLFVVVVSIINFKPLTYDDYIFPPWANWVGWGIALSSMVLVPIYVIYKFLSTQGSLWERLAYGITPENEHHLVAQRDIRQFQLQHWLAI

[21] = target: T1, Serotonin 3 (5-HT3) receptor (Homo sapiens); experiment: Percent of control response to 5-HT3 agonistic activity on guinea colon at a concentration 1 uM in the presence of 30 uM MDL 72222; type: functional, tissue-based; conditions: Cavia porcellus, target entry is the homologue from another species
[22] = target: T1, Serotonin 3 (5-HT3) receptor (Homo sapiens); experiment: Compound was tested for agonistic activity against 5-hydroxytryptamine 3 receptor on guinea pig colon at a concentration of 1 uM; type: functional, tissue-based; conditions: Cavia porcellus, target entry is the homologue from another species
[23] = target: T1, Serotonin 3 (5-HT3) receptor (Homo sapiens); experiment: Compound was tested for agonistic activity against 5-hydroxytryptamine 3 receptor on guinea pig colon at a concentration of 10 uM in the presence of 30 uM MDL 72222; type: functional, tissue-based; conditions: Cavia porcellus, target entry is the homologue from another species
[24] = target: T1, Serotonin 3 (5-HT3) receptor (Homo sapiens); experiment: Compound was tested for agonistic activity against 5-hydroxytryptamine 3 receptor on guinea pig colon at a concentration of 10 uM; type: functional, tissue-based; conditions: Cavia porcellus, target entry is the homologue from another species
[25] = target: T1, Serotonin 3 (5-HT3) receptor (Homo sapiens); experiment: Compound was tested for agonistic activity against 5-hydroxytryptamine 3 receptor on guinea pig colon at a concentration of 3 uM; type: functional, tissue-based; conditions: Cavia porcellus, target entry is the homologue from another species

SMILES: Cc1csc2c1-n1cccc1/C2=N/OCCN1CCCC1
- -Log IC50 [1]: 8.7

SMILES: CN(C)CCO/N=C1\c2ccccc2-n2cccc21
- -Log IC50 [1]: 8.24

SMILES: Cc1csc2c1-n1cccc1/C2=N/OCCN
- -Log IC50 [1]: 7.62

SMILES: Cc1csc2c1-n1cccc1/C2=N/OCCN(C)C
- -Log IC50 [2]: 5.66
- Activity [3]: 37
- Activity [4]: 0
- IC50 [5]: 5.75 µM
- Activity [6]: 0
- Displacement [7]: 0%
- IC50 [8]: 0.479 µM
- -Log IC50 [9]: 5.5
- Activity [10]: 64
- Activity [11]: 0
- IC50 [12]: 2.14 µM
- IC50 [13]: 0.871 µM
- Activity [14]: 16
- Displacement [15]: 0%
- -Log IC50 [16]: 6.92
- -Log IC50 [17]: 9.1
- IC50 [18]: 2.69 µM
- Affinity [19]: 5.28%
- Affinity [20]: 6%
- Activity [21]: 73

SMILES: Cc1csc2c1-n1cccc1/C2=N/OCCC1CCCN1C (configuration not stated)
- -Log IC50 [1]: 8.7

SMILES: Cc1csc2c1-n1cccc1/C2=N/OCCNCc1ccccc1
- -Log IC50 [1]: 7.54

SMILES: CN1CCCC1CCO/N=C1\c2ccccc2-n2cccc21 (configuration not stated)
- -Log IC50 [1]: 7.85

SMILES: NCCO/N=C1\c2ccccc2-n2cccc21
- -Log IC50 [1]: 6.66

SMILES: CCN(CC)CCO/N=C1\c2sccc2-n2cccc21
- -Log IC50 [1]: 8.3

SMILES: c1ccc(CNCCO/N=C2\c3ccccc3-n3cccc32)cc1
- -Log IC50 [1]: 6.54

SMILES: CN(C)CCO/N=C1\c2cc(Cl)ccc2-n2cccc21
- -Log IC50 [1]: 7.06

SMILES: CN(CCO/N=C1\c2sccc2-n2cccc21)Cc1ccccc1
- -Log IC50 [1]: 7.63

SMILES: NCCc1c[nH]c2ccc(O)cc12
- Agonist activity [22]: 41
- Agonist activity [23]: 0
- Agonist activity [24]: 90
- Agonist activity [25]: 76

SMILES: Cc1csc2c1-n1cccc1/C2=N/OCCN(C)Cc1ccccc1
- -Log IC50 [1]: 8.16

SMILES: Cc1ccc(-c2csc3c2-n2cccc2/C3=N/OCCN)cc1
- -Log IC50 [1]: 6.66

SMILES: Cc1csc2c1-n1cccc1/C2=N/OCCCN(C)C
- -Log IC50 [1]: 8.6

SMILES: CN(C)CCO/N=C1\c2sccc2-n2cccc21
- -Log IC50 [1]: 8.46

SMILES: Cc1csc2c1-n1cccc1/C2=N/OCCCN(C)Cc1ccccc1
- -Log IC50 [1]: 7.47

SMILES: Cc1csc2c1-n1cccc1/C2=N/OCCN1CCCCC1
- -Log IC50 [1]: 8.4

SMILES: c1ccc(CN2CCN(c3nc4sccc4n4cccc34)CC2)cc1
- -Log IC50 [1]: 8.34
